The numbers were not newly measured in patent publication US20180185286A1, “POROUS MATERIALS CONTAINING COMPOUNDS INCLUDING […] ACTIVE SPECIES” (NOVARTIS PHARMA AG, priority 2014, published 2018), which cites them from elsewhere.

In brackets after ≈: the same amount, converted by molar mass.

For the series the following is noted: in the absence of being incorporated within a porous material.
Broadly, the aqueous solubility is the dissolved amount per volume that the medium holds. Take `O=C(O)c1ccc(-n2nc(-c3ccccc3O)nc2-c2ccccc2O)cc1` [deferasirox]: the aqueous solubility was 38 µg/mL (≈ 102 µM).
Take `O=C1[C@H](CC[C@H](O)c2ccc(F)cc2)[C@@H](c2ccc(O)cc2)N1c1ccc(F)cc1` [ezetimibe]: the aqueous solubility result is reported as “essentially insoluble in aqueous solutions”.
On to `CCOC(=O)C1=C(C)NC(C)=C(C(=O)OC)C1c1cccc(Cl)c1Cl` (centres unmarked) [felodipine], for which the aqueous solubility was 19 µg/mL (≈ 49.4 µM).
Consider `CC(C)Cc1ccc(C(C)C(=O)O)cc1` (centres unmarked) [ibuprofen], for which the aqueous solubility was 38 µg/mL (≈ 184 µM).
As to `COc1ccc2c(c1)c(CC(=O)O)c(C)n2C(=O)c1ccc(Cl)cc1` [indomethacin], the aqueous solubility was 2.5 µg/mL (≈ 6.99 µM).
